Assay results published in PubChem BioAssay AID1241 (SRMLSC, 2008).

Assay: NF-kB promoter reporter activators, neuronal cells, dose response, cell-based, SH-SY5Y, luciferase (AID 1241)
Conditions: fold induction

Structure (SMILES) | EC50 [nM]
FC(F)(F)c1cc(Cl)c2nc(-c3ccccc3)cn2c1 | 5670
Cc1cc(NC(=O)c2ccccc2)sc1C | 17300
O=C(CCCc1ccccc1)Nc1ccc2c(c1)OCCO2 | 1500
Cc1ccccc1OCC(=O)Nc1cccc(C(=O)O)c1 | 4050
COc1ccc(NC(=O)c2nc3ccccc3s2)cc1 | 461
Oc1sc(C=Nc2ccccc2)c2ccccc12 | 10500
NC(=O)c1ccc(-c2ncc(-c3ccccc3)o2)cc1 | 403
COc1ccc(-n2ncc3c(NCC(C)C)ncnc32)cc1 | 1190
O=[N+]([O-])c1cc(Cl)ccc1-c1nc(-c2ccccc2)no1 | 3200
O=C(Nc1ccc(Cl)cc1)C1=Cc2ccccc2OC1 | 2230
Cc1ccc(NC(=O)N2CCc3ccccc32)cc1 | 763
O=C(NCCC1=CCCCC1)c1ccc(Cl)cc1 | 198
Oc1ccc(-c2csc(Nc3ncccn3)n2)cc1 | 3440
COc1ccc(C2=Nc3cc(C)ccc3OC2)cc1 | 1950
O=C(Nc1ccc2c(c1)CCC2)c1cc2ccccc2o1 | 2410
Cc1cccc(Nc2nc3ccccc3s2)c1C | 4270
Cc1ccc(-c2nnc(-c3ccccc3)o2)cc1 | 3440
CC(C)N=C1NN=C(c2ccc(Cl)c(Cl)c2)CS1 | 1420
Fc1ccccc1SCc1nnc(-c2ccccc2Br)o1 | 818
Cc1ccc(C(=O)COC(=O)c2cccs2)cc1 | 2450
Cc1nn(-c2ccccc2)c(Cl)c1/C=N/Nc1ccc(Cl)c(C(=O)O)c1 | 11300
COC(=O)Cc1ccc2sc(-c3ccccc3)nc2c1 | 702
Cc1cccc(Nc2nc(-c3ccccn3)cs2)n1 | 1190

Structure (SMILES) | EC50 [nM]
COc1cccc(NC(=O)C(=S)NC2CCCCC2)c1 | 4220
Cc1ccc(-c2nc3ccc([N+](=O)[O-])cc3[nH]2)cc1 | 577
O=C(Nc1ccccn1)c1ccc2ccccc2n1 | 17200
O=C(Nc1ccc(N2CCCC2)c(Cl)c1)c1cccs1 | 1510
COC(=O)CSc1nc(-c2cccs2)ccc1C#N | 5620
O=C(O)c1ccc(/C=N/Nc2ccc(F)cc2F)cc1 | 1230
Cc1ccsc1C(=O)N/N=C/c1ccc2c(c1)OCO2 | 1140
CCOC(=O)c1sc(NC(=O)c2ccccc2)cc1C | 5740
CCCCOc1ccc(-c2csc(N)n2)cc1[N+](=O)[O-] | 14100
Cc1cc(C(=O)Nc2nc3c(s2)CCCC3)cs1 | 1630
CN1/C(=C\C(=O)c2cccs2)Sc2ccccc21 | 1280
Cn1c(C(=O)Nc2ccc3c(c2)OCCO3)cc2sccc21 | 1170
Cc1ccc(NC(=O)COc2ccccc2C=O)cc1Cl | 3880
COc1ccc(-c2nc(-c3ccc(Br)o3)no2)cc1 | 2010
N/C(=N\OC(=O)c1cccc(Br)c1)c1ccccc1 | 23200
COc1ccccc1Nc1nc(-c2cccs2)cs1 | 3680
CC(C)c1oc(=O)cc2c1[C@@H](O)[C@H]1OC(=O)[C@@]3(C)C[C@@H](O)[C@@H](O)[C@@]2(C)C13 (some centres not stated) | 4450
O=C(Nc1cccnc1)c1cc2c(ccc3ccccc32)o1 | 3460
O=C(Nc1ccccc1)c1cc2ccccc2o1 | 1240
CCOc1ccc(/C=N/Nc2ccccn2)cc1 | 1010
CC(=O)c1cnc2cc(-c3ccc(C)cc3)nn2c1C | 3260
COc1ccc2c(c1)CC/C2=N\OC(=O)c1ccccc1C | 1970
O=C(Nc1nc2c(s1)CCCC2)c1cccs1 | 1080

Structure (SMILES) | EC50 [nM]
c1ccc2sc(NN=C3CCCC3)nc2c1 | 5210
CCOC(=O)c1c(N)sc(C(=O)Nc2ccccc2F)c1C | 1920
Cc1ccnc(NS(=O)(=O)c2ccc(NC(=O)c3ccc([N+](=O)[O-])s3)cc2)n1 | 5770
Cc1cc(N/C=C/C(=O)c2cccs2)ccc1F | 2220
O=C(Nc1ccccc1)Nc1nc2ccccc2s1 | 27200
Cc1ccccc1/C=C1\CCCc2ccccc2C1=O | 24900
Cc1nn(-c2ccccc2Cl)c(Cl)c1/C=N/Nc1cccc(C(=O)O)c1 | 4370
CCOC(=O)c1sc2nc3c(cc2c1N)COC(C)(CC)C3 (configuration not stated) | 1450
O=C(CSc1nnnn1-c1ccccc1)Nc1nsc(-c2ccccc2)n1 | 14200
N/C(=N\N=C\c1cccc(O)c1)c1nonc1N | 3310
Cc1ccc(NC(=O)c2ccn(C)n2)c(Br)c1 | 8250
Cc1ccc2oc(-c3cccc(N)c3)nc2c1 | 660
O=[N+]([O-])c1cc(O)c2ncccc2c1 | 7940
COc1ccc(-c2cn3ccc4ccccc4c3n2)cc1 | 716
Cc1ccc2nc(/C=C/c3cccc(F)c3)ccc2c1 | 3070
COc1ccc(CSc2nc3ccccc3[nH]2)cc1 | 4290
COc1cccc(NC(=O)Nc2ccc3c(c2)nc(C)n3C)c1 | 9300
Clc1ccccc1-c1nnc(-c2ccc3c(c2)OCO3)o1 | 1410
COc1ccc(C(=O)Nc2cc(OC)nc(OC)n2)cc1 | 12000
Cc1cc(N)n2nc(-c3ccccc3)cc2n1 | 10000
COc1ccc2nc(NC(=O)Nc3ccccc3)sc2c1 | 899
CCOc1ccc2nc(NC(=S)N(C)C)sc2c1 | 17300
COc1ccc(-c2cc(=O)c3cc(O)ccc3o2)cc1 | 6990

Structure (SMILES) | EC50 [nM]
COc1cccc(CNc2ccc(Br)cn2)c1O | 3900
Cn1cccc1C(=O)C(=O)Nc1ccccc1 | 25100
O=C(O)c1cccc(N/N=C/c2ccc(-c3ccccc3)cc2)c1 | 1790
CCc1ccc(NC(=O)c2cc(C)on2)cc1 | 2860
CCC(C)c1ccc(NC(=O)c2cccs2)cc1 (configuration not stated) | 734
CC(C)c1ccc(NC(=O)NC2CCCCC2)cc1 | 8150
Cc1occc1C(=O)Nc1ccc2ccccc2c1 | 3700
Cc1cccn2cc(-c3ccc(F)cc3)nc12 | 1860
c1ccc(Cn2ccc(-c3cnc(-c4ccccc4)s3)n2)cc1 | 2240
Fc1c(F)c(F)c(N/N=C/c2c[nH]c3ccccc23)c(F)c1F | 3860
Nc1cccn2c(-c3ccc(Cl)cc3)cnc12 | 3630
O=C(Nc1cccc(O)c1)c1noc2c1CCc1ccccc1-2 | 426
Cc1ccccc1C(=O)O/N=C1\CCS(=O)(=O)c2sccc21 | 3870
COc1ccc(-c2cc(-c3ccccc3O)[nH]n2)cc1OC | 2440
Nc1nc(-c2cccnc2)nc2sc3c(c12)CCCC3 | 6840
Cc1ccc(/C=N/Nc2cccc(C(=O)O)c2)s1 | 2120
O=c1oc2ccccc2cc1-c1csc(Nc2ccc(O)cc2)n1 | 3230
Cc1ccc(NC(=O)c2ccc3ccccc3n2)nc1 | 4110
O=C(N/N=C/C(Br)=C/c1ccccc1)c1cccs1 | 18200
Cc1ccc(S/C=C\C(=O)c2ccccc2)cc1 | 1960
NC(=O)c1ccccc1N/C=C/C(=O)c1ccc(Cl)cc1 | 5140
COc1ccc(-c2csc(Nc3ncccc3C)n2)cc1 | 1650
O=C(Nc1ccc2c(c1)OCCO2)NC1CCCCC1 | 18200

Structure (SMILES) | EC50 [nM]
Oc1ccccc1-c1cc(-c2ccc3c(c2)OCCO3)n[nH]1 | 639
c1ccc2sc(-c3ccc4c(c3)OCO4)nc2c1 | 868
CCCCNc1ncnc2c1cnn2-c1ccc(Cl)cc1 | 7760
CC(=O)Nc1cccc(-c2csc(Nc3ccccn3)n2)c1 | 2670
Cc1ccc(O)c(NC(=O)c2noc3c2CCCCC3)c1 | 9290
O=C(O)c1ccc2nc(-c3ccccc3)sc2c1 | 1840
Nc1cccc(-c2nc3ccccc3s2)c1 | 1410
Cc1ccc2nc(-c3ccc(NC(=O)COC(=O)c4cncc(Br)c4)cc3)sc2c1 | 393
Oc1ccc(-c2nnc(-c3ccc(O)cc3)nn2)cc1 | 5890
Cc1ccc(CN=C2Nc3ccccc3CS2)cc1 | 1190
C/C(=N\Nc1nc2ccccc2[nH]1)c1cccs1 | 2800
COc1cc(/C=N/O)ccc1OCc1ccc([N+](=O)[O-])cc1 | 1690
CCOC(=O)c1ccc2nc(NC(=O)c3cccs3)sc2c1 | 1930
COc1cccc([C@@H]2Oc3ccc(OC)cc3C(=O)[C@H]2O)c1 | 5860
Cc1csc(NC(=O)c2cc3c(s2)CCC3)n1 | 1050
Cc1ccc(C(=O)/C=C/Nc2ccc3c(c2)OCO3)cc1 | 896
CCOC(=O)c1ccc(Nc2ncccc2[N+](=O)[O-])cc1 | 2820
COc1ccc(/C=N/Nc2nc3ccccc3o2)cc1O | 2140
O=C(c1ccccc1)n1ccc(-c2cnc(-c3ccccc3)s2)n1 | 1490
Cc1ccnc(NC(=O)CCCOc2cc(=O)n(C)c3ccccc23)c1 | 10500
Brc1ccc(-c2ncc(-c3ccccc3)cn2)cc1 | 3870
Cc1ccc(-c2nc3ccccc3[nH]2)cc1N | 3410
CN1CCN(Cc2cc(COCc3ccccc3)c3cccnc3c2O)CC1 | 11000

Structure (SMILES) | EC50 [nM]
O=C(Nc1nc2ccc(Cl)cc2s1)c1ccco1 | 1190
O=C(NC(=S)Nc1ccc2c(c1)OCO2)c1ccccc1 | 5700
COC(=O)CSc1nc2cc(C)ccc2cc1C#N | 6530
COc1ccc(-c2cn3cccc(C)c3n2)cc1F | 22400
CS(=O)(=O)N1N=C(c2ccc(Br)cc2)CC1c1ccc2c(c1)OCO2 (configuration not stated) | 2680
Oc1ccccc1-c1cc(-c2cccc(F)c2)n[nH]1 | 7730
Cc1ccc2nc(NC(=O)c3cccs3)sc2c1 | 389
COc1ccc(-c2cc(=O)c3ccccc3s2)cc1 | 2060
Cc1cc(C)n2cc(COc3ccc4ccccc4c3)nc2n1 | 1830
Cc1ccc(-c2nc(Nc3ccccc3)n[nH]2)cc1 | 2290
O=C(NCCC1=CCCCC1)Nc1ccc2nsnc2c1 | 4770
Nc1nc(Nc2ccccc2)nc2ccccc12 | 1380
CCc1ccc2oc(-c3ccc(N)cc3)nc2c1 | 342
Cc1ccc(-c2cc(-c3ccccc3Cl)[nH]n2)c(O)c1 | 7150
Oc1ccc(/C=N/Nc2cccc3cccnc23)c(O)c1 | 2950
Cc1ccc(/C=N/Nc2nnc(Cl)c3ccccc23)cc1 | 1530
Cc1cccnc1Nc1nc(-c2ccc(O)cc2)cs1 | 8130
CNc1nc(-c2ccc3c(c2)CCN3C(=O)c2ccccc2F)cs1 | 2660
Fc1ccccc1Nc1nc2c(s1)CCc1ccccc1-2 | 3360
Clc1ccc(-c2cn3c(n2)-c2ccccc2C3)cc1Cl | 861
Cc1ccc(Nc2nc(C3CC3)cs2)cc1 | 1820
O=C(c1cccs1)c1ccc(-c2cccs2)s1 | 623
